According to patent US20240082238A1, “COMPOSITIONS AND METHODS FOR TREATING CANCER” (UNIVERSITY OF IOWA RESEARCH FOUNDATION, priority 2021, published 2024):

How the values were obtained:
[1] = test system: caspase 9; test: Caspase multiplex activity assay, caspase 9; type: cell-based, human; conditions: 24 h
Description: Apoptosis and caspase activity. The expression of caspase 3, 8, and 9 was measured using Multiplex Activity Assay Fluorometric Kit (Cat. No. ab219915, Abcam). Briefly, Hec50co cells were plated in 96-well plates at a density of 3000 per well in 100 μL of the complete medium and incubated for 24 hours. After incubation, the medium was removed, and different concentrations either in single or combination of treatments were added (PTX 5 and 10 nM; CIP2b 10, 25, and 50 μM). Cells with treatments were incubated for 24 or 72 hours. Then, the caspase kit reagents were added to the cells and incubated at room temperature for 60 minutes. Fluorescence intensity (at excitation/emission values of 535/620 nm, 490/525 nm, and 370/450 nm for caspase 3, 8, and 9, respectively) was then measured using a SpectraMax M5 microplate reader (Molecular Devices).

[2] = test system: LLC-PK1-WT cells; test: Cytotoxicity assay (MTS), LLC-PK1-WT cells; type: cell-based, porcine; conditions: Sus scrofa; PTX alone, 72 h
Description: Cytotoxicity assay. Hec50co cells were seeded at 1500 cells per well in 96-well plates for 24 h in a complete medium. Later, the medium was removed and PTX, CIP2b, or CIP (all dissolved in DMSO and diluted in complete medium) were added to cells as either monotherapies or in combinations, and the plates were incubated for 72 hours. Then, the complete medium was removed and MTS reagent in the complete medium was added to wells, and the plates were incubated for 1-4 hours according to the manufacturer's protocol. Finally, the absorbance was recorded at 490 nm using a Spectra Max plus 384 Microplate Spectrophotometer (Molecular Devices, Sunnyvale, CA). Percentage cell viability was expressed as the average absorbance of the test group relative to that of the control group (untreated cells). The concentration that inhibits proliferation of 50% of cells compared to control (IC50) was calculated using GraphPad Prism (La Jolla, CA). Synergism was detected following the Chou-Talalay method (CI<1 indicates synergism) (Chou T C. Cancer research. 2010; 70(2):440-6, doi: 10.1158/0008-5472.CAN-09-1947) using CompuSyn software (Ver. 1.0).
P-gp efflux transporter. Overexpression of the MDR1 gene, reflected in the abundance of the P-gp efflux pump, is one of the major reasons for PTX chemoresistance in cancer. In this study, LLC-PK1-WT and LLC-PK1-MDR1 cell lines were used. […]

[3] = molecular target: T1, human Topo IIα (Homo sapiens, UniProt P11388); test: Topoisomerase II inhibition assay (plasmid-based); type: biochemical; conditions: drug final concentration 100 μM; read-out: percentage of Topo II inhibition
T1 construct: purchased TopoGEN Inc. TG1001-1A
Description: Topoisomerase II inhibition assay. A plasmid-based Topo II assay (Cat. No. TG1001-1A, TopoGEN Inc., Buena Vista, CO) was performed according to the manufacturer's instructions. In this experiment, 1 μL of tested compounds (PTX, CIP, CIP2b, ETO) at a concentration of 2 mM was mixed with 4 μL of the reaction buffer (mixture of buffer A (0.5 M Tris-HCl (pH 8), 1.50 M NaCl, 100 mM MgCl2, 5 mM Dithiothreitol, 300 μg BSA/mL) and buffer B (10× ATP Buffer), and deionized water was added to make 18 μL solution. This was followed by adding 1 μL of catenated DNA and 1 μL of human Topo IIα (8 U/μL) (drug final concentration was 100 μM). Additionally, decatenated DNA (De-CT DNA) and catenated DNA (CT DNA)±Topo II were used as a control (i.e., not containing drugs). Moreover, relaxed DNA was added as another control in this assay. Similar to Topo I assay, samples were then incubated on a heating block set at 37° C. for 30 minutes. Then, the reaction was stopped by the addition of a 5× stop buffer. Samples were then loaded directly into the wells of a 1% agarose gel containing 1 μg/mL ethidium bromide. The gel was run at 150 V until the dye front had traveled approximately 5 cm (run time was approximately 2 h). The gel was then washed with deionized water for 30 minutes before imaging. The image was taken using an Invitrogen iBright CL1500 Imaging System. The intensity of the final bands in the gel was quantified using ImageJ, and the results are expressed as the percentage of Topo II inhibition.

[4] = test system: Hec50co tumors; test: In vivo tumor accumulation of PTX-OG after peritumoral SC injection; design: species or system athymic Nu/Nu mice; conditions: 0.1 mg/kg PTX-OG SC peritumoral, 24 h
Description: Effect of drug combination on the in vivo tumor accumulation of PTX In this study, athymic Nu/Nu mice were challenged with 1×10^6 of Hec50co tumor cells per mouse on day zero of the experiment. When the tumor grew to a palpable size range of 100-150 mm^3, as measured by Equation 2, treatments were administered SC at the tumor site (peritumoral). Treatment groups (n=3 per group) included: (i) DPBS treated mice, 0.1 mg/kg PTX-OG, and 0.1 mg/kg PTX-OG+5 mg/kg CIP2b. After 24 hours, mice were euthanized, and tumors were collected and submerged in Hank's Balanced Salt Solution (HBSS) with calcium and magnesium. Tumors were then taken out of HBSS (one at a time to maintain cell viability), placed on a Petri dish, and mechanically minced with a sterile scalpel and forceps into small pieces. Tumor pieces were transferred to 50 mL tubes containing 10 mL of the pre-warmed (37° C.) sterile cell dissociation buffer (HBSS containing 50,000 U of collagenase IV and 100,000 U of DNase I). Samples were incubated at 37° C. under continuous rotation at 300 rpm for 60 minutes in the incubator-shaker. Then, cell suspensions were filtered through a 70 μm cell strainer then a 40 μm cell strainer to remove any aggregates. […] Finally, cell suspensions were acquired using a FACSCalibur flow cytometer, and data were analyzed using FlowJo software.

T1 sequence (P11388 whole entry): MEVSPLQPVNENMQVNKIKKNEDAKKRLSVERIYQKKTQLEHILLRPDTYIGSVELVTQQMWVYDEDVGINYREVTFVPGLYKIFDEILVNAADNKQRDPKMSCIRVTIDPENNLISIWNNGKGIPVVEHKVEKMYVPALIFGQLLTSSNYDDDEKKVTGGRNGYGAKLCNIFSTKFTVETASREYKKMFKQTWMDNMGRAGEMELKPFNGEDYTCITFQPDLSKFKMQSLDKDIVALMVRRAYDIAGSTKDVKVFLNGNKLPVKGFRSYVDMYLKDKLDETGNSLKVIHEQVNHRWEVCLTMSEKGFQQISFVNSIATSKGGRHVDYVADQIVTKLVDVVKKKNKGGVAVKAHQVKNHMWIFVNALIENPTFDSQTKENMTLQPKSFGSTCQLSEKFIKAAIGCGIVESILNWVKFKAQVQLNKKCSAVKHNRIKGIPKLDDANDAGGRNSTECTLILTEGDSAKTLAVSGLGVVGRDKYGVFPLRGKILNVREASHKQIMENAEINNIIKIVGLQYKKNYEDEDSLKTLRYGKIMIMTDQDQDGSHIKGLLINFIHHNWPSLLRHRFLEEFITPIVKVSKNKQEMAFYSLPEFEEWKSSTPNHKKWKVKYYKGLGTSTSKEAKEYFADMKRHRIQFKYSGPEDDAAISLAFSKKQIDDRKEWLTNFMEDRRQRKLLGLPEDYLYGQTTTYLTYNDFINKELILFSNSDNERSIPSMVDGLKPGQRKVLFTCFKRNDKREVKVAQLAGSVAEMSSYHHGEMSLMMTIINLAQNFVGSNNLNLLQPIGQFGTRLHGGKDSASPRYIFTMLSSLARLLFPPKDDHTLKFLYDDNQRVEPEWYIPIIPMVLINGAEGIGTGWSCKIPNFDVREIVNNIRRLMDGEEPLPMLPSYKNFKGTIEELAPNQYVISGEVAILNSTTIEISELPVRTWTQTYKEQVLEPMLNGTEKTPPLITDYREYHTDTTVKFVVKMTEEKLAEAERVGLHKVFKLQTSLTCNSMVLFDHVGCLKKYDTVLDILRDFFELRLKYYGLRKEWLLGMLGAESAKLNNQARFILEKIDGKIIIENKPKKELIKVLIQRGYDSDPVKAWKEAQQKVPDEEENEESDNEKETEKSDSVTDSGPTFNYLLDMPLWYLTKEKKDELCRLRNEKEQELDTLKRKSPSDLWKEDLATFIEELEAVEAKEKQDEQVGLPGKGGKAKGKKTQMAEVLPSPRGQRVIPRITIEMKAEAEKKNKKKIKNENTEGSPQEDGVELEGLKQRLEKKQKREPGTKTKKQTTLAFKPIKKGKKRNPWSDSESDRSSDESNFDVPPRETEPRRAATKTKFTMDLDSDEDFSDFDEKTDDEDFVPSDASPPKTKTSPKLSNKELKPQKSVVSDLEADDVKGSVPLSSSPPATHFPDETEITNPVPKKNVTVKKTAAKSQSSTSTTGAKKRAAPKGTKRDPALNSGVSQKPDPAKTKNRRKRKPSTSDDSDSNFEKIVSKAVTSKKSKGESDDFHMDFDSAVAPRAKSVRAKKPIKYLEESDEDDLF

## CC(=O)O[C@H]1C(=O)[C@@]2(C)[C@H]([C@H](OC(=O)c3ccccc3)[C@]3(O)C[C@H](OC(=O)[C@H](O)[C@@H](NC(=O)c4ccccc4)c4ccccc4)C(C)=C1C3(C)C)[C@]1(OC(C)=O)CO[C@@H]1C[C@@H]2O [PTX, paclitaxel]
[1]; 5 nM PTX
  expression of caspase 9 vs untreated: not statistically different from untreated cells
[1]; 10 nM PTX
  level of caspase 9 expression vs untreated: significantly higher
[2]
  IC50: 21.3 nM
[3]
  inhibition at 100 µM: 8%
[4]
  in vivo intracellular accumulation of PTX-OG by tumor cells vs untreated control: marginal in vivo intracellular accumulation
